Laboratory results published in patent US5843916A, “Cyclic amp analogues, individually and in pairs, to inhibit neoplastic cell growth” (priority 1994, dated 1998).
Read-outs that look alike come from different tables or passages of the source.

Tests used:
[1] = test system: breast (MCF-7) and colon (LS-174T) cancer cell lines; assay: Growth inhibition of breast and colon cancer cells (Table 1); format: cell-based, human; conditions: Homo sapiens
Protocol: The compounds of the present invention were added using 100X concentrated stock solutions. At desired times, cell counts in duplicate were performed on a Coulter counter after harvesting the cells with gentle trypsinization. […] Cell counts were performed on each of three or more separate experiments, and the average values are expressed as percent growth inhibition as compared with untreated control cells. | ^a The values of percentage growth inhibition were determined from th | doseresponse curve experiments. Each value represents an average value an | range (in parentheses) obtained from three or more separate experiments. | The cell counts in duplicate were performed at day 3 and day 4 after two | treatments (day 0 and day 2) with analogs (seeding on day -1).

[2] = test system: MCF-7ras breast cancer cell line; assay: Synergistic growth inhibition by analogue combinations (Table 2); format: cell-based, human; conditions: footnote of Table 2
Protocol: All breast cancer cell lines were grown in IMEM supplemented with 10% fetal bovine serum, HEPES 20 mM, penicillin-streptomycin, and extra glutamine. Colon carcinoma cell lines were grown in EMEM supplemented with 10% FBS, EMEM, NEAA, HEPES 20 mM, extra glutamine, and penicillin-streptomycin. The cells were grown at 37° C. in humidified incubators in an atmosphere of 5% CO2.
For cell growth experiments, 2-3×10^5 cells/60 mm dish were seeded, and 24 hours later (Day 0), the medium was removed, and fresh medium and the additives were added then and every 48 hours thereafter. The compounds of the present invention were added using 100X concentrated stock solutions. At desired times, cell counts in duplicate were performed on a Coulter counter after harvesting the cells with gentle trypsinization.
Synergism quotient was defined as the net growth inhibitory effect of the analogue combination divided by the sum of the net analogue effects on growth inhibition. A quotient of >1 indicates a synergistic effect, while a quotient of <1 indicates an antagonistic effect.
Synergism of growth inhibition was determined by
treatment of cells with C-6 analogues and C-8 analogues alone
and in combination at Day 0 and Day 2 and counting the cell
^a Data are expressed as percentage growth inhibition in reference to
the growth of untreated control cells and represent average values and
ranges (in parentheses) of duplicate cell counts on three or more separat
experiments. The values for percentage growth inhibition of each analogue
^b The synergism quotient was defined as previously described.

HL-60 = assay: Growth inhibition of leukemic cells (Table 12); format: cell-based; conditions: Homo sapiens
Molt-4 = assay: Growth inhibition of leukemic cells (Table 12); format: cell-based, human; conditions: Homo sapiens, MOLT-4; read-out: Inhibition of Growth IC50, Molt-4
K-562 = assay: Growth inhibition of leukemic cells (Table 12); format: cell-based; conditions: Homo sapiens, K562
myc-K562 = assay: Growth inhibition of leukemic cells (Table 12); format: cell-based; conditions: Homo sapiens
[3] = test system: four leukemic cell lines (HL-60, K-562, myc-K562, Molt-4); assay: Growth inhibition of leukemic cell lines; format: cell-based, human
[4] = test system: disseminated neuroblastomas; conditions: combined drug regimen; cited from earlier work
[5] = test system: breast and colon cancer cells; assay: Effect on cell morphology (FIG. 2); format: cell-based, human; conditions: 100 μM; three to four days
Excerpt: The photographs were taken on Day 4, ×160.
Furthermore, the synergistic growth inhibitory effect of C-6 and C-8 analogue combinations was also reflected in the change in the cell morphology.

[6] = test system: breast and colon cancer lines (MCF-7, T-47D, ZR-75-1, MCF-7ras, MDA-MB-231, BT-20, HBL-100, LS-174T, WiDr, HT-29); assay: Growth inhibition of breast and colon cancer lines (FIG. 1); format: cell-based, human; conditions: 0.5 mM, alone
[7] = test system: cultured human fibroblasts; conditions: cited from earlier work
[8] = 72 h, 50 μM, day 3, average (range), read-out: % Growth Inhibition, Day 3
[9] = 96 h, 50 μM, day 4, average (range), read-out: % Growth Inhibition, Day 4

SMILES | inhibition at 50 µM [1, 8] [%] | inhibition at 50 µM [1, 9] [%] | IC50 (HL-60) [µM] | IC50 (Molt-4) [µM] | IC50 (K-562) [µM] | IC50 (myc-K562) [µM] | other results
O=C(Nc1ncnc2c1ncn2[C@@H]1O[C@@H]2COP(=O)(O)O[C@H]2[C@H]1O)c1ccccc1 [N^6 -benzoyl-cAMP] | 30 | 28 | 50 | 40 | 45 | 50 | percentage growth inhibition of each analogue when added alone [2]: 10%; IC50 ([3]; Homo sapiens, leukemic cell lines, range): 40 to 50 µM
COc1ccc(Cc2nccc3cc(OC)c(OC)cc23)cc1OC [papaverine] | – | – | – | – | – | – | clinical result [4]: promising results
CSc1nc2c(N)ncnc2n1[C@@H]1O[C@@H]2COP(=O)(O)O[C@H]2[C@H]1O [8-methylthio-cAMP] | 46 | 42 | 100 | 100 | 100 | 100 | inhibition at 50 µM ([1]; 50 micromolar, read-out: growth inhibition): 40 to 75%; cell morphology [5]: induced the morphological change; times less potent than 8-Cl-cAMP ([3]; leukemic cell lines): 5-20 times
CC(C)Cn1c(=O)n(C)c(=O)c2[nH]cnc21 [1-methyl-3-isobutylxanthine] | – | – | – | – | – | – | growth inhibitory effect [6]: little or no growth inhibitory effect; growth inhibitory effect ([3]; 0.5 mM, alone): little or no growth inhibitory effect; DNA synthesis ([7]; added during first eight hours after serum addition): not delayed; DNA synthesis ([7]; added more than eight hours after serum addition): inhibitory
